# In US20060142315A1, “Substituted biaryl piperazinyl-pyridine analogues” (priority 2003, published 2006):
# Target: P. carinii (Pc) dihydrofolate reductase (Pneumocystis carinii, UniProt P16184)
# Experiment: Standardized spectrophotometric DHFR inhibition assay, P. carinii enzyme
# Type: biochemical
# Conditions: Pc DHFR
# Sequence of P. carinii (Pc) dihydrofolate reductase (P16184 whole entry): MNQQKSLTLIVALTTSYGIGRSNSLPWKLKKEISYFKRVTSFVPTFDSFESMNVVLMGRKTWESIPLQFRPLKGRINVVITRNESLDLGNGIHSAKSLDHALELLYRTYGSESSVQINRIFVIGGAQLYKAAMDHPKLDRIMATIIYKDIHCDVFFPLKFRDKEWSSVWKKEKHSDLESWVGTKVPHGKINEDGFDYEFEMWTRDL
row,Structure (SMILES),IC50
1,COc1ccc(CCCCCC(=O)O)cc1Cc1cnc(N)nc1N [Compound 6],0.15 µM
2,COc1ccc(CCCCC(=O)O)cc1Cc1cnc(N)nc1N [Compound 5],0.15 µM
3,"COc1cc(Cc2cnc(N)nc2N)cc(C#CCCCC(=O)O)c1OC [Compound 49, 2,4-Diamino-5-[3′,4′-dimethoxy-5′-(5-carboxy-1-pentynyl)benzyl]-pyrimidine]",0.001 µM
4,COc1ccc(C#CCCCC(=O)O)cc1Cc1cnc(N)nc1N [Compound 3],0.028 µM
5,"COc1ccc(C#CCOc2ccccc2C(=O)O)cc1Cc1cnc(N)nc1N [Compound 10, 2,4-Diamino-5-[2′-methoxy-5′-[3-(2″-carboxyphenoxy)propyn-1-yl]benzyl]pyrimidine]",2.3 µM
6,"COc1ccc(OCc2cccc(C(=O)O)c2)cc1Cc1cnc(N)nc1N [Compound 8, 2,4-Diamino-5-[2′-methoxy-5′-(3″-carboxybenzyloxy)benzyl]pyrimidine]",0.89 µM
7,"COc1ccc(C#CCOc2cccc(C(=O)O)c2)cc1Cc1cnc(N)nc1N [Compound 11, 2,4-Diamino-5-[2′-methoxy-5′-[3-(3″-carboxyphenoxy)-1-propynyl]benzyl]pyrimidine]",5.6 µM
8,COc1ccc(CCCCCCC(=O)O)cc1Cc1cnc(N)nc1N [Compound 7],0.53 µM
9,COc1ccc(C#CCCCCC(=O)O)cc1Cc1cnc(N)nc1N [Compound 4],0.87 µM

# Same assay, conditions: relative to rat liver DHFR; 95% confidence limits in parentheses
row,Structure (SMILES),Selectivity Index (SI) P. carinii
1,"COc1ccc(C#CCOc2ccccc2C(=O)O)cc1Cc1cnc(N)nc1N [Compound 10, 2,4-Diamino-5-[2′-methoxy-5′-[3-(2″-carboxyphenoxy)propyn-1-yl]benzyl]pyrimidine]",2.7 (2.1-3.5)

# Target: T1, T. gondii (Tg) dihydrofolate reductase (Toxoplasma gondii, UniProt Q07422)
# Experiment: not given
# Type: biochemical
# Conditions: not given
# T1 sequence (Q07422 whole entry): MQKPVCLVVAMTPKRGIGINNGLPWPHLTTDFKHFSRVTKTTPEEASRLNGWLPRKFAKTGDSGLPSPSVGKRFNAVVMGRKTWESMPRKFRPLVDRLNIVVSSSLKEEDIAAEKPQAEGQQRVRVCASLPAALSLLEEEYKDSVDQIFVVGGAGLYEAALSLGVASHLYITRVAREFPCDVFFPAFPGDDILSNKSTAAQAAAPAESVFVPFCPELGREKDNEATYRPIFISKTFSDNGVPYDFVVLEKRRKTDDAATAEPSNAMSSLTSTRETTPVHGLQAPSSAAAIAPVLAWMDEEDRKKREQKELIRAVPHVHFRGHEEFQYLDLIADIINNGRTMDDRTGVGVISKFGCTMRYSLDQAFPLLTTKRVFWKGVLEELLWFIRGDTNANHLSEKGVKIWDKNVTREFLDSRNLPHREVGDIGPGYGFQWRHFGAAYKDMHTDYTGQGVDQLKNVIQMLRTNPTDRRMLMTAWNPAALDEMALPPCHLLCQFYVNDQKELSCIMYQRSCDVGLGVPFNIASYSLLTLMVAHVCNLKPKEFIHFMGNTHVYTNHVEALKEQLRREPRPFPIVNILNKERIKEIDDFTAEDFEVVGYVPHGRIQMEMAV
row,Structure (SMILES),IC50
1,COc1ccc(C#CCCCC(=O)O)cc1Cc1cnc(N)nc1N [Compound 3],0.032 µM
2,"COc1ccc(OCc2cccc(C(=O)O)c2)cc1Cc1cnc(N)nc1N [Compound 8, 2,4-Diamino-5-[2′-methoxy-5′-(3″-carboxybenzyloxy)benzyl]pyrimidine]",0.6 µM
3,"COc1ccc(OCCCCC(=O)O)cc1Cc1cnc(N)nc1N [Compound 1b, reference compound]",0.11 µM
4,"COc1ccc(C#CCOc2cccc(C(=O)O)c2)cc1Cc1cnc(N)nc1N [Compound 11, 2,4-Diamino-5-[2′-methoxy-5′-[3-(3″-carboxyphenoxy)-1-propynyl]benzyl]pyrimidine]",1.6 µM
5,COc1ccc(CCCCCCC(=O)O)cc1Cc1cnc(N)nc1N [Compound 7],0.03 µM
6,COc1ccc(C#CCCCCC(=O)O)cc1Cc1cnc(N)nc1N [Compound 4],0.072 µM

# Same assay, conditions: Tg DHFR
row,Structure (SMILES),IC50
1,COc1ccc(CCCCCC(=O)O)cc1Cc1cnc(N)nc1N [Compound 6],0.0084 µM
2,COc1ccc(CCCCC(=O)O)cc1Cc1cnc(N)nc1N [Compound 5],0.058 µM
3,"COc1ccc(C#CCOc2ccccc2C(=O)O)cc1Cc1cnc(N)nc1N [Compound 10, 2,4-Diamino-5-[2′-methoxy-5′-[3-(2″-carboxyphenoxy)propyn-1-yl]benzyl]pyrimidine]",0.5 µM
4,COc1ccc(C#CCCC(=O)O)cc1Cc1cnc(N)nc1N [Compound 2],0.097 µM
5,"COc1ccc(OCc2ccc(C(=O)O)cc2)cc1Cc1cnc(N)nc1N [Compound 9, 2,4-Diamino-5-(2′-methoxy-5′-(4″-carboxybenzyloxy)benzyl]pyrimidine]",2 µM

# Same assay, conditions: relative to rat liver DHFR; 95% confidence limits in parentheses
row,Structure (SMILES),Selectivity Index (SI) T. gondii
1,"COc1ccc(C#CCOc2ccccc2C(=O)O)cc1Cc1cnc(N)nc1N [Compound 10, 2,4-Diamino-5-[2′-methoxy-5′-[3-(2″-carboxyphenoxy)propyn-1-yl]benzyl]pyrimidine]",13 (9.3-17)

# Target: M. avium (Ma) dihydrofolate reductase (Mycobacterium avium, UniProt O30463)
# Experiment: biochemical
# Conditions: not given
# Sequence of M. avium (Ma) dihydrofolate reductase (O30463 1-181): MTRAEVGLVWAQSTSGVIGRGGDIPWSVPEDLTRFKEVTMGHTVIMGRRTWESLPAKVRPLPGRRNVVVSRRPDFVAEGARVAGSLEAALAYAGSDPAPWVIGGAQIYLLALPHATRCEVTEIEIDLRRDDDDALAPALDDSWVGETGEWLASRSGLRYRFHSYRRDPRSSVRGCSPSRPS
Structure (SMILES),IC50,Selectivity Index (SI) M. avium
"COc1cc(Cc2cnc(N)nc2N)cc(C#CCCCC(=O)O)c1OC [Compound 49, 2,4-Diamino-5-[3′,4′-dimethoxy-5′-(5-carboxy-1-pentynyl)benzyl]-pyrimidine]",0.0024 µM,–
"COc1ccc(C#CCOc2ccccc2C(=O)O)cc1Cc1cnc(N)nc1N [Compound 10, 2,4-Diamino-5-[2′-methoxy-5′-[3-(2″-carboxyphenoxy)propyn-1-yl]benzyl]pyrimidine]",0.036 µM,170 (130-230)
"COc1ccc(OCc2cccc(C(=O)O)c2)cc1Cc1cnc(N)nc1N [Compound 8, 2,4-Diamino-5-[2′-methoxy-5′-(3″-carboxybenzyloxy)benzyl]pyrimidine]",0.12 µM,–
"COc1ccc(C#CCOc2cccc(C(=O)O)c2)cc1Cc1cnc(N)nc1N [Compound 11, 2,4-Diamino-5-[2′-methoxy-5′-[3-(3″-carboxyphenoxy)-1-propynyl]benzyl]pyrimidine]",0.057 µM,–
COc1ccc(CCCCCCC(=O)O)cc1Cc1cnc(N)nc1N [Compound 7],0.089 µM,–
COc1ccc(C#CCCCCC(=O)O)cc1Cc1cnc(N)nc1N [Compound 4],0.041 µM,–

# Same assay, conditions: Ma DHFR
row,Structure (SMILES),IC50
1,COc1ccc(CCCCCC(=O)O)cc1Cc1cnc(N)nc1N [Compound 6],0.016 µM
2,COc1ccc(CCCCC(=O)O)cc1Cc1cnc(N)nc1N [Compound 5],0.035 µM
3,COc1ccc(C#CCCCC(=O)O)cc1Cc1cnc(N)nc1N [Compound 3],0.007 µM
4,"COc1ccc(OCCCCC(=O)O)cc1Cc1cnc(N)nc1N [Compound 1b, reference compound]",0.058 µM
5,"COc1ccc(OCc2ccc(C(=O)O)cc2)cc1Cc1cnc(N)nc1N [Compound 9, 2,4-Diamino-5-(2′-methoxy-5′-(4″-carboxybenzyloxy)benzyl]pyrimidine]",0.06 µM

# Target: T2, rat liver DHFR (Rattus norvegicus, UniProt Q920D2)
# T2 construct: rat liver DHFR; from tissue; host or cells: rat liver
# T2 sequence (Q920D2 1-187): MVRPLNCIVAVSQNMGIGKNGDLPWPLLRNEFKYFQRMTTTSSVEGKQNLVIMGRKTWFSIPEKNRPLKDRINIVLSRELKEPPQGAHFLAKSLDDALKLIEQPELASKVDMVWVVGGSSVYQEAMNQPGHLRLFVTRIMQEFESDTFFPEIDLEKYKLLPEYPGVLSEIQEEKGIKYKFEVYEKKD
# Experiment: Standardized spectrophotometric DHFR inhibition assay, rat liver enzyme
# Type: biochemical
# Conditions: not given
row,Structure (SMILES),IC50
1,COc1ccc(CCCCCC(=O)O)cc1Cc1cnc(N)nc1N [Compound 6],4.1 µM
2,COc1ccc(CCCCC(=O)O)cc1Cc1cnc(N)nc1N [Compound 5],3.2 µM
3,"COc1cc(Cc2cnc(N)nc2N)cc(C#CCCCC(=O)O)c1OC [Compound 49, 2,4-Diamino-5-[3′,4′-dimethoxy-5′-(5-carboxy-1-pentynyl)benzyl]-pyrimidine]",5000 µM
4,COc1ccc(C#CCCCC(=O)O)cc1Cc1cnc(N)nc1N [Compound 3],2.2 µM
5,"COc1ccc(C#CCOc2ccccc2C(=O)O)cc1Cc1cnc(N)nc1N [Compound 10, 2,4-Diamino-5-[2′-methoxy-5′-[3-(2″-carboxyphenoxy)propyn-1-yl]benzyl]pyrimidine]",6.2 µM
6,"COc1ccc(OCc2cccc(C(=O)O)c2)cc1Cc1cnc(N)nc1N [Compound 8, 2,4-Diamino-5-[2′-methoxy-5′-(3″-carboxybenzyloxy)benzyl]pyrimidine]",19 µM
7,"COc1ccc(C#CCOc2cccc(C(=O)O)c2)cc1Cc1cnc(N)nc1N [Compound 11, 2,4-Diamino-5-[2′-methoxy-5′-[3-(3″-carboxyphenoxy)-1-propynyl]benzyl]pyrimidine]",14 µM
8,COc1ccc(CCCCCCC(=O)O)cc1Cc1cnc(N)nc1N [Compound 7],4.6 µM
9,COc1ccc(C#CCCCCC(=O)O)cc1Cc1cnc(N)nc1N [Compound 4],25 µM
10,"COc1ccc(OCc2ccc(C(=O)O)cc2)cc1Cc1cnc(N)nc1N [Compound 9, 2,4-Diamino-5-(2′-methoxy-5′-(4″-carboxybenzyloxy)benzyl]pyrimidine]",21 µM

# Test system: not given
# Experiment: not given
# Conditions: not given
row,Structure (SMILES),melting point
1,COc1ccc(CCCCC(=O)O)cc1Cc1cnc(N)nc1N [Compound 5],134 to 137 °C
2,COc1ccc(C#CCCCC(=O)O)cc1Cc1cnc(N)nc1N [Compound 3],121 to 124 °C
3,COc1ccc(C#CCCCCC(=O)O)cc1Cc1cnc(N)nc1N [Compound 4],187 to 189 °C

# Target: T1, T. gondii (Tg) dihydrofolate reductase
# Experiment: not given
# Conditions: cited from earlier work
row,Structure (SMILES),SI against Tg DHFR
1,Nc1nc(N)c2nc(CN3c4ccccc4C=Cc4ccccc43)cnc2n1 [Compound 40],"40: R = N-Dibenz[b,f]azepinyl (IC50 = 0.043 μM, SI = 102)^3g"
2,CCc1nc(N)nc(N)c1-c1ccc(Cl)c(N=NN2CCOCC2)c1 [Compound 37],"37: R^1R^2 = morpholino (IC50 = 0.19 μM, SI = 140)^18"

# Same assay, conditions: literature compounds of Table 2, standardized assay conditions; read-out: IC50 against Tg DHFR; cited from earlier work
row,Structure (SMILES),IC50
1,CCc1nc(N)nc(N)c1-c1ccc(Cl)c(N=NN(C)C)c1 [Compound 38],0.31 µM

# Same assay, conditions: literature compounds of Table 2; Tg versus rat DHFR; cited from earlier work
row,Structure (SMILES),SI against Tg DHFR
1,CCc1nc(N)nc(N)c1-c1ccc(Cl)c(N=NN(C)C)c1 [Compound 38],61

# Same assay, conditions: read-out: IC50 against Tg DHFR; cited from earlier work
row,Structure (SMILES),IC50
1,CCc1nc(N)nc(N)c1-c1ccc(Cl)c(N=NN2CCOCC2)c1 [Compound 37],0.19 µM
